Article PMC2706954, “Dissecting Structural and Functional Diversity of the Lantibiotic Mersacidin” (Chemistry & Biology, 2009)
Values after ≈ are worked out from the molar mass of the structure shown.

What was measured:
S. epidermidis NCTC11047 = assay type: cell-based; settings: NCTC11047
Experimental: (§1) Antibacterial activity of fermentation samples or purified samples was determined by Mueller-Hinton Agar diffusion bioassays using M. luteus ATCC 4698 as the indicator strain. Susceptibility testing (minimum inhibitory concentration [MIC]) for all aerobic organisms, with the exception of S. pneumoniae, was performed following the recommendations of CLSI. Susceptibility testing of S. pneumoniae was performed by two-fold serial dilutions in brain-heart-infusion broth supplemented with 50 μg/ml Ca^2+. Vancomycin was used as a reference antibiotic, and plates were incubated aerobically, with shaking, for 18–20 hr at 37°C with the MIC defined as the lowest concentration of drug that prevented visible growth.

E. faecalis ATCC29212 = assay type: cell-based; settings: ATCC29212
Experimental: as §1

E. faecium ATCC19579 = assay type: cell-based; settings: ATCC19579
Experimental: as §1

E. faecium 7131121 VRE = assay type: cell-based; settings: 7131121 VRE
Experimental: as §1

S. pneumoniae BAA-255 = assay type: cell-based, Streptococcus pneumoniae; settings: BAA-255
Experimental: as §1

M. luteus ATCC4698 = assay type: cell-based, Micrococcus luteus; settings: ATCC4698
Experimental: as §1

S. aureus SH1000 = assay type: cell-based, Staphylococcus aureus; settings: SH1000
Experimental: as §1

S. aureus R33 MRSA = assay type: cell-based, Staphylococcus aureus; settings: R33
Experimental: as §1

Structure (SMILES)	MIC S. epidermidis NCTC11047 (S. epidermidis NCTC11047) [µg/mL]	MIC E. faecalis ATCC29212 (E. faecalis ATCC29212) [µg/mL]	MIC E. faecium ATCC19579 (E. faecium ATCC19579) [µg/mL]	MIC E. faecium 7131121 VRE (E. faecium 7131121 VRE) [µg/mL]	MIC S. pneumoniae BAA-255 (S. pneumoniae BAA-255)	MIC M. luteus ATCC4698 (M. luteus ATCC4698) [µg/mL]	MIC S. aureus SH1000 (S. aureus SH1000) [µg/mL]	MIC S. aureus R33 MRSA (S. aureus R33 MRSA) [µg/mL]
C=C1NC(=O)C2NC(=O)[C@H](CC(C)C)NC(=O)C(NC(=O)[C@@H]3CSC(C)C(NC(=O)[C@H](Cc4ccccc4)NC(=O)C4NC(=O)[C@@H](N)CSC4C)C(=O)N[C@@H](CC(C)C)C(=O)N4CCC[C@H]4C(=O)N[C@@H](CC(N)=O)C(=O)NCC(=O)NCC(=O)NCC(=O)N[C@@H](C(C)C)C(=O)N3)C(C)SC[C@H](NC(=O)[C@H](CCC(=O)O)NC1=O)C(=O)N[C@@H]([C@@H](C)CC)C(=O)NC=CSC2C (stereo partly drawn) [G7N]	32 (≈ 17 µM)	>64	64 (≈ 34 µM)	>64	16 µg/mL (≈ 8.5 µM)	< 4	64 (≈ 34 µM)	
C=C1NC(=O)C2NC(=O)[C@H](CC(C)C)NC(=O)C(NC(=O)[C@@H]3CSC(C)C(NC(=O)[C@H](Cc4ccccc4)NC(=O)C4NC(=O)[C@@H](N)CSC4C)C(=O)N[C@@H](CC(C)C)C(=O)N4CCC[C@H]4C(=O)NCC(=O)N[C@@H](CCC(N)=O)C(=O)NCC(=O)NCC(=O)N[C@@H](C(C)C)C(=O)N3)C(C)SC[C@H](NC(=O)[C@H](CCC(=O)O)NC1=O)C(=O)N[C@@H]([C@@H](C)CC)C(=O)NC=CSC2C (stereo partly drawn) [G8Q]		>64	>64	>64		8 (≈ 4.22 µM)	>64	32 (≈ 16.9 µM)
C=C1NC(=O)C2NC(=O)[C@H](CC(C)C)NC(=O)C(NC(=O)[C@@H]3CSC(C)C(NC(=O)[C@H](Cc4ccccc4)NC(=O)C4NC(=O)[C@@H](N)CSC4C)C(=O)N[C@@H](CC(C)C)C(=O)N4CCC[C@H]4C(=O)NCC(=O)NCC(=O)NCC(=O)N[C@@H](Cc4ccc(O)cc4)C(=O)N[C@@H](C(C)C)C(=O)N3)C(C)SC[C@H](NC(=O)[C@H](CCC(=O)O)NC1=O)C(=O)N[C@@H]([C@@H](C)CC)C(=O)NC=CSC2C (stereo partly drawn) [G10Y]		32 (≈ 16.6 µM)	64 (≈ 33.1 µM)	>64	< 4 µg/mL	< 4	>64	64 (≈ 33.1 µM)
C=C1NC(=O)C2NC(=O)[C@H](CC(C)C)NC(=O)C(NC(=O)[C@@H]3CSC(C)C(NC(=O)[C@H](Cc4ccccc4)NC(=O)C4NC(=O)[C@@H](N)CSC4C)C(=O)N[C@@H](CC(C)C)C(=O)N[C@@H](Cc4c[nH]cn4)C(=O)NCC(=O)NCC(=O)NCC(=O)NCC(=O)N[C@@H](C(C)C)C(=O)N3)C(C)SC[C@H](NC(=O)[C@H](CCC(=O)O)NC1=O)C(=O)N[C@@H]([C@@H](C)CC)C(=O)NC=CSC2C (stereo partly drawn) [P6H]		>64	>64	>64	64, >64 μg/ml	16 (≈ 8.57 µM)	64 (≈ 34.3 µM)	

Continued, values first:

MIC S. epidermidis NCTC11047 (S. epidermidis NCTC11047) [µg/mL]	MIC E. faecalis ATCC29212 (E. faecalis ATCC29212) [µg/mL]	MIC E. faecium ATCC19579 (E. faecium ATCC19579) [µg/mL]	MIC E. faecium 7131121 VRE (E. faecium 7131121 VRE) [µg/mL]	MIC S. pneumoniae BAA-255 (S. pneumoniae BAA-255)	MIC M. luteus ATCC4698 (M. luteus ATCC4698) [µg/mL]	MIC S. aureus SH1000 (S. aureus SH1000) [µg/mL]	MIC S. aureus R33 MRSA (S. aureus R33 MRSA) [µg/mL]	Structure (SMILES)
64 (≈ 34.8 µM)	>64	64 (≈ 34.8 µM)	>64	>64 µg/mL	64 (≈ 34.8 µM)	>64		C=C1NC(=O)C2NC(=O)[C@H](CC(C)C)NC(=O)C(NC(=O)[C@@H]3CSC(C)C(NC(=O)[C@H](Cc4ccccc4)NC(=O)C4NC(=O)[C@@H](N)CSC4C)C(=O)N[C@@H](CC(C)C)C(=O)N4CCC[C@H]4C(=O)N[C@@H](C)C(=O)NCC(=O)NCC(=O)NCC(=O)N[C@@H](C(C)C)C(=O)N3)C(C)SC[C@H](NC(=O)[C@H](CCC(=O)O)NC1=O)C(=O)N[C@@H]([C@@H](C)CC)C(=O)NC=CSC2C (stereo partly drawn) [G7A]
	32 (≈ 17.5 µM)	16 (≈ 8.76 µM)		1 µg/mL (≈ 0.548 µM)		32 (≈ 17.5 µM)	8 (≈ 4.38 µM)	C=C1NC(=O)C2NC(=O)[C@H]([C@@H](C)CC)NC(=O)C(NC(=O)[C@@H]3CSC(C)C(NC(=O)[C@H](Cc4ccccc4)NC(=O)C4NC(=O)[C@@H](N)CSC4C)C(=O)N[C@@H](CC(C)C)C(=O)N4CCC[C@H]4C(=O)NCC(=O)NCC(=O)NCC(=O)NCC(=O)N[C@@H](C(C)C)C(=O)N3)C(C)SC[C@H](NC(=O)[C@H](CCC(=O)O)NC1=O)C(=O)N[C@@H]([C@@H](C)CC)C(=O)NC=CSC2C (stereo partly drawn) [L14I]
	64 (≈ 34.7 µM)	64 (≈ 34.7 µM)	64 (≈ 34.7 µM)	4 µg/mL (≈ 2.17 µM)	2 (≈ 1.08 µM)	32 (≈ 17.4 µM)	16 (≈ 8.68 µM)	C=C1NC(=O)C2NC(=O)[C@H](CCSC)NC(=O)C(NC(=O)[C@@H]3CSC(C)C(NC(=O)[C@H](Cc4ccccc4)NC(=O)C4NC(=O)[C@@H](N)CSC4C)C(=O)N[C@@H](CC(C)C)C(=O)N4CCC[C@H]4C(=O)NCC(=O)NCC(=O)NCC(=O)NCC(=O)N[C@@H](C(C)C)C(=O)N3)C(C)SC[C@H](NC(=O)[C@H](CCC(=O)O)NC1=O)C(=O)N[C@@H]([C@@H](C)CC)C(=O)NC=CSC2C (stereo partly drawn) [L14M]
16 (≈ 8.83 µM)	64 (≈ 35.3 µM)	64 (≈ 35.3 µM)	>64	4 µg/mL (≈ 2.21 µM)		32 (≈ 17.7 µM)	16 (≈ 8.83 µM)	C=C1NC(=O)C2NC(=O)[C@H](C(C)C)NC(=O)C(NC(=O)[C@@H]3CSC(C)C(NC(=O)[C@H](Cc4ccccc4)NC(=O)C4NC(=O)[C@@H](N)CSC4C)C(=O)N[C@@H](CC(C)C)C(=O)N4CCC[C@H]4C(=O)NCC(=O)NCC(=O)NCC(=O)NCC(=O)N[C@@H](C(C)C)C(=O)N3)C(C)SC[C@H](NC(=O)[C@H](CCC(=O)O)NC1=O)C(=O)N[C@@H]([C@@H](C)CC)C(=O)NC=CSC2C (stereo partly drawn) [L14V]
16 (≈ 8.82 µM)	64 (≈ 35.3 µM)	32 (≈ 17.6 µM)	64 (≈ 35.3 µM)	2 µg/mL (≈ 1.1 µM)		32 (≈ 17.6 µM)	16 (≈ 8.82 µM)	CC[C@H](C)[C@@H]1NC(=O)[C@@H]2CSC(C)C(NC(=O)[C@@H]3CSC(C)C(NC(=O)[C@H](Cc4ccccc4)NC(=O)C4NC(=O)[C@@H](N)CSC4C)C(=O)N[C@@H](CC(C)C)C(=O)N4CCC[C@H]4C(=O)NCC(=O)NCC(=O)NCC(=O)NCC(=O)N[C@@H](C(C)C)C(=O)N3)C(=O)N[C@@H](CC(C)C)C(=O)NC(C(=O)NCC(=O)N[C@@H](CCC(=O)O)C(=O)N2)C(C)SC=CNC1=O (stereo partly drawn) [S16G]
16 (≈ 8.69 µM)	64 (≈ 34.8 µM)	32 (≈ 17.4 µM)	32 (≈ 17.4 µM)			64 (≈ 34.8 µM)	32 (≈ 17.4 µM)	C=C1NC(=O)C2NC(=O)[C@H](CC(C)C)NC(=O)C(NC(=O)[C@@H]3CSC(C)C(NC(=O)[C@H](Cc4ccccc4)NC(=O)C4NC(=O)[C@@H](N)CSC4C)C(=O)N[C@@H](CC(C)C)C(=O)N4CCC[C@H]4C(=O)NCC(=O)NCC(=O)NCC(=O)NCC(=O)N[C@@H](CC(C)C)C(=O)N3)C(C)SC[C@H](NC(=O)[C@H](CCC(=O)O)NC1=O)C(=O)N[C@@H]([C@@H](C)CC)C(=O)NC=CSC2C (stereo partly drawn) [V11L]
	64 (≈ 34.4 µM)	32 (≈ 17.2 µM)	64 (≈ 34.4 µM)	32 µg/mL (≈ 17.2 µM)	16 (≈ 8.61 µM)	64 (≈ 34.4 µM)	32 (≈ 17.2 µM)	C=C1NC(=O)C2NC(=O)[C@H](CC(C)C)NC(=O)C(NC(=O)[C@@H]3CSC(C)C(NC(=O)[C@H](Cc4ccccc4)NC(=O)C4NC(=O)[C@@H](N)CSC4C)C(=O)N[C@@H](CC(C)C)C(=O)N4CCC[C@H]4C(=O)NCC(=O)NCC(=O)NCC(=O)NCC(=O)N[C@@H](CCSC)C(=O)N3)C(C)SC[C@H](NC(=O)[C@H](CCC(=O)O)NC1=O)C(=O)N[C@@H]([C@@H](C)CC)C(=O)NC=CSC2C (stereo partly drawn) [V11M]
